Reference: patent US8883827B2, “Azole derivatives as WTN pathway inhibitors” (Oslo University Hospital HF, priority 2009, dated 2014)

How the values were obtained:
cKit(h) = target: T1, cKit(h) (Homo sapiens, UniProt P10721); test: Kinase screen; assay type: biochemical; details: 0.1% DMSO control = 100%
T1 construct: purchased Millipore (KinaseProfiler service)

Fyn(h) = target: T2, Fyn(h) (Homo sapiens, UniProt P06241); test: Kinase screen; assay type: biochemical; details: 0.1% DMSO control = 100%
T2 construct: purchased Millipore (KinaseProfiler service)

β-catenin = test: Western blot and immunocytochemistry of β-catenin in SW480 cells; assay type: cell-based
Protocol: The effect of compound No. 1 on the presence of β-catenin in the nucleus or in the cytoplasm of colorectal cancer SW480 cells was investigated. SW480 cells contain activating mutations in the APC gene, leading to elevated levels of nuclear β-catenin and aberrant canonical Wnt signaling. A Western blot analysis was carried out using cell lysates from compound-treated SW480 cells and an antibody against the active form of β-catenin (non-phosphorylated N-terminal—ABC). In parallel, antibodies were used against total β-catenin (β-catenin), or β-catenin phosphorylated at the N-terminal (-β-catenin) which detects a degradable form of β-catenin.
SW480 cells were seeded and treated with compound No. 1 as described in Example 25. Cell lysates were immunoblotted using monoclonal active-β-catenin (ABC—Millipore), monoclonal β-catenin (β-catenin—BD Transduction Laboratories™), phospho-β-catenin (pβ-catenin—Cell Signaling Technology) and actin (Sigma). Primary antibodies were visualized with secondary HRP conjugated antibodies (Santa Cruz Biotechnology) and enhanced chemiluminescent substrate (Pierce® ECL Western Blotting Substrate, Thermo Scientific).
For immunocytochemical experiments, SW480 cells were seeded and treated as described in Example 24. After 72 hours, cells were fixed in 4% PFA in PBS for 10 minutes. Immunostaining was performed as described in standard protocols. Primary antibody (monoclonal β-catenin, BD Transduction Laboratories™) and secondary antibody (Alexa Fluor® 594, Invitrogen) were diluted 1:1000. The samples were imaged by using a Zeiss Axiovert 200M Fluorescence/Live cell Imaging Microscope with X40 magnification and the same exposure times. Cells were stained with DAPI (4′,6-diamidino-2-phenylindole) according to standard protocols.

NEK2(h) = target: T3, NEK2(h) (Homo sapiens, UniProt P51955); test: Kinase screen; assay type: biochemical; details: 0.1% DMSO control = 100%
T3 construct: purchased Millipore (KinaseProfiler service)
T3 sequence (P51955 whole entry): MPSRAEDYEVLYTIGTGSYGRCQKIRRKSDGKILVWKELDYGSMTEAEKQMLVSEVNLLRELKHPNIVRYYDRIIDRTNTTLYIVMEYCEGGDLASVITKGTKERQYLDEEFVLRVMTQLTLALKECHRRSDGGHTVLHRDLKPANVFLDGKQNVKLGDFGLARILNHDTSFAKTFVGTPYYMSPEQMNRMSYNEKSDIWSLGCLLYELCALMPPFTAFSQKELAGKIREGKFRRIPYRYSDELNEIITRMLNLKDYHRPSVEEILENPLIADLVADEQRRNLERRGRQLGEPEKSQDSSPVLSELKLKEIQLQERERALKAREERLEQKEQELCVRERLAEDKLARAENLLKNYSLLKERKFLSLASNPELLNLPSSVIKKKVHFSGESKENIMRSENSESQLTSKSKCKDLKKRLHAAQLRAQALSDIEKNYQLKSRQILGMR

MST1(h) = target: T4, MST1(h) (Homo sapiens, UniProt Q13043); test: Kinase screen; assay type: biochemical; details: 0.1% DMSO control = 100%
T4 construct: purchased Millipore (KinaseProfiler service)

SHP-1(h) = target: T5, SHP-1(h) (Homo sapiens, UniProt P29350); test: Phosphatase screen; assay type: biochemical; details: 0.1% DMSO control = 100%
T5 construct: purchased Millipore (KinaseProfiler service)

Aurora-A(h) = target: T6, Aurora-A(h) (Homo sapiens, UniProt O14965); test: Kinase screen; assay type: biochemical; details: 0.1% DMSO control = 100%
T6 construct: purchased Millipore (KinaseProfiler service)

CDK9/cyclin T1(h) = target: T7, CDK9/cyclin T1(h) (Homo sapiens, UniProt P50750); test: Kinase screen; assay type: biochemical; details: 0.1% DMSO control = 100%
T7 construct: purchased Millipore (KinaseProfiler service)

[1] = system: SW480 colon carcinoma cells; test: MTS cell proliferation assay, Table 5; assay type: cell-based; details: Homo sapiens; SW480, 10 μM, 72 h; relative to DMSO control; read-out: Cell proliferation (%) for test compounds
In short: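 SW480 cells treated with 10 μM compound (0.1% DMSO vehicle) in 10% FBS medium, refreshed daily, for 72 h. MTS reduction read at A490 after 2 h substrate incubation; values are t0-corrected growth as percent of DMSO control.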

ROCK-I(h) = target: T8, ROCK-I(h) (Homo sapiens, UniProt Q13464); test: Kinase screen; assay type: biochemical; details: 0.1% DMSO control = 100%
T8 construct: purchased Millipore (KinaseProfiler service)
T8 sequence (Q13464 whole entry): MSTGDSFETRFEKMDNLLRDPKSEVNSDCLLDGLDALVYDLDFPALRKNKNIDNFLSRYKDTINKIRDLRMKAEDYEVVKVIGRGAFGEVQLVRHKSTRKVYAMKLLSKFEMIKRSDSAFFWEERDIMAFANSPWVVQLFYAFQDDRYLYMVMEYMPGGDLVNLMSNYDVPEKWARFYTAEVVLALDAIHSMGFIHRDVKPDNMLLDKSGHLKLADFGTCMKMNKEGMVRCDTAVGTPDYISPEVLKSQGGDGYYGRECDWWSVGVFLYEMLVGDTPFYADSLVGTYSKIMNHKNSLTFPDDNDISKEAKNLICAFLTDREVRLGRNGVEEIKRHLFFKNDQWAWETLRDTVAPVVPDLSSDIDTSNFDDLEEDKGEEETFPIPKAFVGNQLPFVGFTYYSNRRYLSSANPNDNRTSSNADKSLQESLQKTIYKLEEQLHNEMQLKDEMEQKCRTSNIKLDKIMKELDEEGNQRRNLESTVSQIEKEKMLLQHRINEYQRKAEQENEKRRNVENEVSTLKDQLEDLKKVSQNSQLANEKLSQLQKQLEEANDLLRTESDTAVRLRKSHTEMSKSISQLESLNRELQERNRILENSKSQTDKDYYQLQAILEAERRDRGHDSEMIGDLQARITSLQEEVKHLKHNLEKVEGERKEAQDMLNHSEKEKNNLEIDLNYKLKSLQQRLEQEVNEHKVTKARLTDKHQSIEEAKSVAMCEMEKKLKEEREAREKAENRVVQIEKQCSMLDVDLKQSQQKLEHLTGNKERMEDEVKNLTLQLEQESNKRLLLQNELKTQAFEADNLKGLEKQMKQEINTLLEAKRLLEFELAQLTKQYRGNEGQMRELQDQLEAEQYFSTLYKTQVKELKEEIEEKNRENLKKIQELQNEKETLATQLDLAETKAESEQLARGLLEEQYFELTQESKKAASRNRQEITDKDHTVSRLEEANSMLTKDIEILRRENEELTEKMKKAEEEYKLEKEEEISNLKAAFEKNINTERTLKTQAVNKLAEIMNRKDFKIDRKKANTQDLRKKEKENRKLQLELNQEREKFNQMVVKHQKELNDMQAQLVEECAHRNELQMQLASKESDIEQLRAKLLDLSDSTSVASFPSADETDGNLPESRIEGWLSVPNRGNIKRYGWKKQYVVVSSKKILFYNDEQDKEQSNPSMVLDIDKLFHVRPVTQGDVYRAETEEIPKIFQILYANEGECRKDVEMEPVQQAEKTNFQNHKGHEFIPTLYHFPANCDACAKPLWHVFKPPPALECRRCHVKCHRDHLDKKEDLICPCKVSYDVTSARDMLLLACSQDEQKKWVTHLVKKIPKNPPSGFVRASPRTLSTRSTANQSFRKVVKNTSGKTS

JNK3(h) = target: T9, JNK3(h) (Homo sapiens, UniProt P53779); test: Kinase screen; assay type: biochemical; details: 0.1% DMSO control = 100%
T9 construct: purchased Millipore (KinaseProfiler service)

Xenopus embryos = test: Xenopus laevis axis duplication assay (XWnt8 mRNA); assay type: in vivo; details: 0.4 pmol injected, scored after 36 h; compared to DMSO controls
Protocol: Injection of ectopic XWnt8 mRNA into the prospective ventral side activates canonical Wnt pathway signaling and induces a secondary body axis. This assay provides a reliable method to test biological effects of compounds with potential effects on Wnt signaling. […] The embryos were incubated at 19° C. and axis duplication was scored after 36 hours.

HePTP(h) = target: T10, HePTP(h) (Homo sapiens, UniProt P35236); test: Phosphatase screen; assay type: biochemical; details: 0.1% DMSO control = 100%
T10 construct: purchased Millipore (KinaseProfiler service)
T10 sequence (P35236 whole entry): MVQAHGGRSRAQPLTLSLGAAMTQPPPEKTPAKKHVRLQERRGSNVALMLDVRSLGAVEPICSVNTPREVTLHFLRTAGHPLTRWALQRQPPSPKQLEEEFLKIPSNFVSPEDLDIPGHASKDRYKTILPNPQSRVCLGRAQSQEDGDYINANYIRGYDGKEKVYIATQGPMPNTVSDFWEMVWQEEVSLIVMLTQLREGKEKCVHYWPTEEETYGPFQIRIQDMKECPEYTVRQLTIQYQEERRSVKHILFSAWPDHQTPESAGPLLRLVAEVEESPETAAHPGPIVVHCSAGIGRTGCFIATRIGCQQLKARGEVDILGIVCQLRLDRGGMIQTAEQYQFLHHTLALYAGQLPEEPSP

PKCα(h) = target: T11, PKCα(h) (Homo sapiens, UniProt P17252); test: Kinase screen; assay type: biochemical; details: 0.1% DMSO control = 100%
T11 construct: purchased Millipore (KinaseProfiler service)

KDR(h) = target: T12, KDR(h) (Homo sapiens, UniProt P35968); test: Kinase screen; assay type: biochemical; details: 0.1% DMSO control = 100%
T12 construct: purchased Millipore (KinaseProfiler service)

PTP-1B(h) = target: T13, PTP-1B(h) (Homo sapiens, UniProt P18031); test: Phosphatase screen; assay type: biochemical; details: 0.1% DMSO control = 100%
T13 construct: purchased Millipore (KinaseProfiler service)

CK2(h) = target: T14, CK2(h) (Homo sapiens, UniProt P68400); test: Kinase screen; assay type: biochemical; details: 0.1% DMSO control = 100%
T14 construct: purchased Millipore (KinaseProfiler service)

DUSP22(h) = target: T15, DUSP22(h) (Homo sapiens, UniProt Q9NRW4); test: Phosphatase screen; assay type: biochemical; details: 0.1% DMSO control = 100%
T15 construct: purchased Millipore (KinaseProfiler service)
T15 sequence (Q9NRW4 whole entry): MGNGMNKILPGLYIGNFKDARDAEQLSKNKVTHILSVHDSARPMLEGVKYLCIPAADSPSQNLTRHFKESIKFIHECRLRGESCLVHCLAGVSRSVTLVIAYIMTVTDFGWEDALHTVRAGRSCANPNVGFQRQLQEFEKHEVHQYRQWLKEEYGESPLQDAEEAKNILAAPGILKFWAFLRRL

Lyn(h) = target: T16, Lyn(h) (Homo sapiens, UniProt P07948); test: Kinase screen; assay type: biochemical; details: 0.1% DMSO control = 100%
T16 construct: purchased Millipore (KinaseProfiler service)

MAPKAP-K2(h) = target: T17, MAPKAP-K2(h) (Homo sapiens, UniProt P49137); test: Kinase screen; assay type: biochemical; details: 0.1% DMSO control = 100%
T17 construct: purchased Millipore (KinaseProfiler service)
T17 sequence (P49137 whole entry): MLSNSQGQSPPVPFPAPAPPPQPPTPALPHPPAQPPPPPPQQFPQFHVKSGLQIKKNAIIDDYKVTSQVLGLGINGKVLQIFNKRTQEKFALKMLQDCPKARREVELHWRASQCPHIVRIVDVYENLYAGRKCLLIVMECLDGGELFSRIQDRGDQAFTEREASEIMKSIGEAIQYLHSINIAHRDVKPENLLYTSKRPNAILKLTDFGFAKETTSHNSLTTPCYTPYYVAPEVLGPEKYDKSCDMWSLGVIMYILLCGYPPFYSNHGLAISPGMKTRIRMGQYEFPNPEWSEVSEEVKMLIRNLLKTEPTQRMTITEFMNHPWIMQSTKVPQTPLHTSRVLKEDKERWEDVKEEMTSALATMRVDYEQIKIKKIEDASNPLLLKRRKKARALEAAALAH

MLK1(h) = target: T18, MLK1(h) (Homo sapiens, UniProt P80192); test: Kinase screen; assay type: biochemical; details: 0.1% DMSO control = 100%
T18 construct: purchased Millipore (KinaseProfiler service)
T18 sequence (P80192 whole entry): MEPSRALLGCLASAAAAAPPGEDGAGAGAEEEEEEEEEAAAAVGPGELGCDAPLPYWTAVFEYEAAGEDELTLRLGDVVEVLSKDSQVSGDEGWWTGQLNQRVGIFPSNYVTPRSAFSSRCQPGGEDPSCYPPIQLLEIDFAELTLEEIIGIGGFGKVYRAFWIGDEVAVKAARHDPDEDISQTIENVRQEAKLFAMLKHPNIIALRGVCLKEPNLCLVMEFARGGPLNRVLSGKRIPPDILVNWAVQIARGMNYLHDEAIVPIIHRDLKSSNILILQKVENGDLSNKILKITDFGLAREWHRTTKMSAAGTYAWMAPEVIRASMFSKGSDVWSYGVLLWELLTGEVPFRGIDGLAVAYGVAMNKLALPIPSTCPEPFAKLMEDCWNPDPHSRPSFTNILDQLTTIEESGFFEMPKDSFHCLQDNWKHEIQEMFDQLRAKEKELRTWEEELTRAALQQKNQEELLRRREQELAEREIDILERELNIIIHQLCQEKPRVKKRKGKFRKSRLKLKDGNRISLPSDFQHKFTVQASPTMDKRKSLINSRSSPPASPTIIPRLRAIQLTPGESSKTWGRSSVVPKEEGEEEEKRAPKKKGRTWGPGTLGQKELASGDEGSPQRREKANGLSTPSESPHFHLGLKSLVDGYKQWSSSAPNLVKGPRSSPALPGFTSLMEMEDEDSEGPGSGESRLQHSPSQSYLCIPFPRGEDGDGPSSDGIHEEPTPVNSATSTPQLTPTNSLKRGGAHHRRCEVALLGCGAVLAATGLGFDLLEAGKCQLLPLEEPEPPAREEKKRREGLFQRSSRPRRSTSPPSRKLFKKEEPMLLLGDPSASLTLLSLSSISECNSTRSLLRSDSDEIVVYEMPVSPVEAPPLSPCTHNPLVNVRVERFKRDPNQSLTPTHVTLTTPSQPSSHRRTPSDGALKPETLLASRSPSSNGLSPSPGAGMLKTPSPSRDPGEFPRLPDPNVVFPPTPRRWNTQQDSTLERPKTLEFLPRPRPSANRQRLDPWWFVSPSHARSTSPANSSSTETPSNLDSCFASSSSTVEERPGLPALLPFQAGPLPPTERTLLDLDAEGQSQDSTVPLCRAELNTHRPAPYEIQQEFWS

AMPKα1(h) = target: T19, AMPKα1(h) (Homo sapiens, UniProt Q13131); test: Kinase screen; assay type: biochemical; details: 0.1% DMSO control = 100%
T19 construct: purchased Millipore (KinaseProfiler service)
T19 sequence (Q13131 whole entry): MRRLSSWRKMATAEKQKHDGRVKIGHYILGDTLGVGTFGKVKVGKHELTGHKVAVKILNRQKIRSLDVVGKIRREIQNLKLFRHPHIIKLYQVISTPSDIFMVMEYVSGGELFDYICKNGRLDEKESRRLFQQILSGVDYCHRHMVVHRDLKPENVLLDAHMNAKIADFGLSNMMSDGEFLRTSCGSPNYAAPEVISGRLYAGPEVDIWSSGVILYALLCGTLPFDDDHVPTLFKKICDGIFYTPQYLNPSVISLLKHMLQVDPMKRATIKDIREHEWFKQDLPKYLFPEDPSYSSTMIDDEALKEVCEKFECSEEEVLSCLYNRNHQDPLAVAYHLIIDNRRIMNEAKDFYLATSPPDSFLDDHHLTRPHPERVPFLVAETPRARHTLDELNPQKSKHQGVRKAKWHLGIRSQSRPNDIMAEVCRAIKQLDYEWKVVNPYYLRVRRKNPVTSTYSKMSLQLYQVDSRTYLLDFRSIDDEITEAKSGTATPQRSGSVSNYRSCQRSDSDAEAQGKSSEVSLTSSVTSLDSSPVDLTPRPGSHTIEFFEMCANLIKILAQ
T19 sequence (Q9Y478 whole entry partner): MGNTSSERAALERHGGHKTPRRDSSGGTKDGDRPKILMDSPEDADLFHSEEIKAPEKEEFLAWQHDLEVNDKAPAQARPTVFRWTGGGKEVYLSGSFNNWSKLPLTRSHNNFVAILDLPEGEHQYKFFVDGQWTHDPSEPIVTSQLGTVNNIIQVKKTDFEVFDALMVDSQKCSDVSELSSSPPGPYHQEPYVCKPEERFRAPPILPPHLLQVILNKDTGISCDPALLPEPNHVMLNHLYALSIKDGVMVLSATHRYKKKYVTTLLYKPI
T19 sequence (P54619 whole entry partner): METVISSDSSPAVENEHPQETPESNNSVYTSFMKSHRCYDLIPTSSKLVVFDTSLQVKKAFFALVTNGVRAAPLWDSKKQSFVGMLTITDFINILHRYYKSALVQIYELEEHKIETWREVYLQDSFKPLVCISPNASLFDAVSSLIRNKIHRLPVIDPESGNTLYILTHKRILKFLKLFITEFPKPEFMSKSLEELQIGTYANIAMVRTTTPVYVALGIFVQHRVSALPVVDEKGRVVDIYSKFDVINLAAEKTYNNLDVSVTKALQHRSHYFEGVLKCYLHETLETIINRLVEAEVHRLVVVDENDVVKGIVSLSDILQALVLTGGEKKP

EGFR(h) = target: T20, EGFR(h) (Homo sapiens, UniProt P00533); test: Kinase screen; assay type: biochemical; details: 0.1% DMSO control = 100%
T20 construct: purchased Millipore (KinaseProfiler service)

With COc1ccc(-n2c(SCc3nc(-c4ccc(C)cc4)no3)nnc2-c2ccncc2)cc1 [Compound 1] as the compound, how does the activity at 10 µM (cKit(h)) read?
Its activity at 10 µM is 116%.

What about the activity at 10 µM (Fyn(h)) of the same compound?
Its activity at 10 µM is 83%.

What about the “active β-catenin (non-phosphorylated, ABC) in Western blot” value (β-catenin; SW480, 1 μM, 72 hours) of the same compound?
Its value is “barely detectable”.

What about the “overall levels of total β-catenin (Western blot)” value (β-catenin; SW480, 72-hour exposure) of the same compound?
Its value is “reduced”.

What about the “nuclear total β-catenin (immunofluorescence)” value (β-catenin; SW480, 72-hour incubation) of the same compound?
The value was “Reduction”.

What about the “level of degradable pβ-catenin (Western blot)” value (β-catenin; SW480, 24 hours after adding compound) of the same compound?
Its value is “temporarily increased”.

What about the “active β-catenin (ABC) level (Western blot)” value (β-catenin; SW480, 72 h, all concentrations) of the same compound?
Its value is “even stronger reduction”.

And the activity at 10 µM (NEK2(h))?
Its activity at 10 µM is 94%.

And the activity at 10 µM (MST1(h))?
The activity at 10 µM was 106%.

And the activity at 10 µM (SHP-1(h))?
The activity at 10 µM was 102%.

And the activity at 10 µM (Aurora-A(h))?
Its activity at 10 µM is 95%.

What about the activity at 10 µM (CDK9/cyclin T1(h)) of the same compound?
Its activity at 10 µM is 115%.

What about the activity at 10 µM [1] of the same compound?
The activity at 10 µM was 52%.

What about the activity at 10 µM (ROCK-I(h)) of the same compound?
Its activity at 10 µM is 100%.

What about the activity at 10 µM (JNK3(h)) of the same compound?
The activity at 10 µM was 93%.

And the “reduction in double axis formation” value (Xenopus embryos)?
Its value is 87%.

And the activity at 10 µM (HePTP(h))?
Its activity at 10 µM is 106%.

What about the activity at 10 µM (PKCα(h)) of the same compound?
Its activity at 10 µM is 105%.

What about the activity at 10 µM (KDR(h)) of the same compound?
Its activity at 10 µM is 104%.

What about the activity at 10 µM (PTP-1B(h)) of the same compound?
The activity at 10 µM was 105%.

And the activity at 10 µM (CK2(h))?
Its activity at 10 µM is 105%.

And the activity at 10 µM (DUSP22(h))?
Its activity at 10 µM is 101%.

And the activity at 10 µM (Lyn(h))?
Its activity at 10 µM is 109%.

And the activity at 10 µM (MAPKAP-K2(h))?
Its activity at 10 µM is 85%.

What about the activity at 10 µM (MLK1(h)) of the same compound?
The activity at 10 µM was 99%.

And the activity at 10 µM (AMPKα1(h))?
Its activity at 10 µM is 95%.

And the activity at 10 µM (EGFR(h))?
The activity at 10 µM was 108%.
